{"source": "patent US9789181B2", "about": "“PAN-DR binding polypeptides and uses thereof” (Epimmune Inc., priority 2009, dated 2017)", "key": {"[1]": {"tested_on": "crude extract from E. coli", "assay": "In situ protease assay: TNFα variants in E. coli crude extract, SDS-PAGE and Western blot", "type": "in vitro ADME", "settings": "for protease resistance of TNF variants (proteolytic cleavage inside the PADRE analogue sequence): E. coli crude extract, immunoblot, data not shown", "procedure": "In order to test the protease resistance of selected, good binding PADRE analogues, their sequences were inserted by cloning techniques into a loop (loop EF) in human TNFα. Cell-free protein crude extract from E. coli expressing the modified TNFα molecules was prepared and proteolytic cleavage within the PADRE analogue sequences was analysed by SDS-PAGE followed by immunoblotting.\nA synthetic cDNA encoding TNF (Y87S) was used as template. Oligonucleotides encoding PADRE or PADRE analogues were inserted into the template between A185 and E186 by PCR (cf. above). Resulting cDNAs were cloned into pET28b+(Novagen) and transformed into E. coli strain HMS 174. For recombinant expression, the resulting E. coli strains were cultured in fermentors in a defined medium at 37° C. Induction of recombinant expression was initiated by the addition of 1 mM of IPTG and temperature was lowered to 25° C. Cultures were harvested at 4, 8 or 24 h post-IPTG induction. TNFα variants were purified to >90% homogeneity by affinity chromatography using a TNFα specific monoclonal antibody as described in Nielsen et al., (2004), J Biol. Chem. 279:33593-33600. The purified TNFα variants were characterized by MALDI-TOF mass spectrometry to verify their identity and integrity.\nIn Situ Protease Assay: Analysis of the Protease Resistance of TNF-α Variants Using Western Blot\nAliquots (1 ml) of E. coli cell cultures, expressing the various TNF-α variants to be tested, were centrifuged (5000 g/5 min/5° C.) and the culture medium was discarded. Cell pellets were resuspended in 1 ml of 20 mM Bis-Tris, pH 6.0. Cell disruption was achieved by sonication (4×15 sec at an amplitude of 11 μm with 20 sec pauses between each sonication round). The resulting suspensions were centrifuged (20000 g/30 min/8° C.) and the supernatants (crude extracts) were transferred to fresh tubes. Crude extracts were then analysed for protein content using a Bradford protein assay (Biorad). Equivalent amounts of proteins were loaded onto 4-12% NuPAGE gels (Novex). After SDS-PAGE, proteins were transferred onto nitrocellulose membrane by semi-dry blotting. For immunoreaction, incubation with rabbit TNFα antiserum (1 h; dilution 1:10 000) and with horse radish peroxidase-conjugated secondary antibody (Dako P448) were carried out in Tris 50 mM, NaCl 150 mM, EDTA 5 mM, Igepal 0.1%, gelatine 0.5%. Detection was with ECL™ reagents (GE Healthcare)."}, "[2]": {"target": "purified HLA DRB1 *0405 (Homo sapiens, UniProt P01903+P01911, A100R/A169T/D86S/F76Y/I96L/K127E/L162R/M171V/N62H/P40V/Q125Y/R42H/S133A/S149N/S66Y/V115G/V209L/W38E)", "assay": "IC50nM to purified HLA | DRB1 *0405", "procedure": "(§1) Table printed on a drawing sheet, FIG. 1\nHead of the field: IC50nM to purified HLA | DRB1 *0405\n(§2) First copying reader's note: The comma is the decimal sign and the point a thousands separator (e.g. 21.831); some values are printed bold or italic and some SEQ ID NOs underlined, with no legend on the sheet.\nWhere the first naming reader finds the target: head: IC50nM to purified HLA | DRB1 *0405"}, "[3]": {"target": "purified HLA DRB4 *0101 (Homo sapiens, UniProt P01903+P13762, G164S)", "sequence (P01903 26-254 limits assumed)": "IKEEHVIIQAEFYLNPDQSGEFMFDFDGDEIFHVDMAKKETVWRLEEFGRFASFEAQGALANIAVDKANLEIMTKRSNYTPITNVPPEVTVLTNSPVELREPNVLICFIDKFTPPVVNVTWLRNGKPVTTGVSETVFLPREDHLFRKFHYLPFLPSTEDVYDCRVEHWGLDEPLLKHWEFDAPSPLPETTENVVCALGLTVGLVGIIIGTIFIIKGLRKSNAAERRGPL", "sequence (P13762 whole entry G164S)": "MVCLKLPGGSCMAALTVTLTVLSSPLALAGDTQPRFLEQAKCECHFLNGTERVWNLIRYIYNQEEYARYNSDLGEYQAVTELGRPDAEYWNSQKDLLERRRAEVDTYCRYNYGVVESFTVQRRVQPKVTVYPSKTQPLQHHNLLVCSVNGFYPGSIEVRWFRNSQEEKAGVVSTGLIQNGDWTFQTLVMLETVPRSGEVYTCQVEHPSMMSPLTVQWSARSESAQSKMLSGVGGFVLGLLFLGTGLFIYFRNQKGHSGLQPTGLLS", "assay": "IC50nM to purified HLA | DRB4 *0101", "procedure": "as §1\nHead of the field: IC50nM to purified HLA | DRB4 *0101\nas §2\nWhere the first naming reader finds the target: head: IC50nM to purified HLA | DRB4 *0101"}, "[4]": {"target": "purified HLA DRB1 *0701 (Homo sapiens, UniProt P01903+P01911, A100R/A102G/A103Q/D57E/D86V/E43K/F76Y/K127E/L162R/M171V/P40G/Q125H/Q99D/R33Q/R42Y/R54Q/S133A/S66F/T210M/V115G/Y107V/Y59L/Y89S)", "assay": "IC50nM to purified HLA | DRB1 *0701", "procedure": "as §1\nHead of the field: IC50nM to purified HLA | DRB1 *0701\nas §2\nWhere the first naming reader finds the target: head: IC50nM to purified HLA | DRB1 *0701"}, "[5]": {"target": "purified HLA DRB1 *0301 (Homo sapiens, UniProt P01903+P01911, A100K/A102G/A103R/A169T/F55Y/I96L/K41T/L162R/M171V/P40S/Q125H/Q178H/Q39Y/R42S/S66N/T106N/T262R/W38E/Y61H)", "sequence (P01903 26-254 limits assumed, other chains not shown)": "as the sequence (P01903 26-254 limits assumed) above", "assay": "IC50nM to purified HLA | DRB1 *0301", "procedure": "as §1\nHead of the field: IC50nM to purified HLA | DRB1 *0301\nas §2\nWhere the first naming reader finds the target: head: IC50nM to purified HLA | DRB1 *0301"}, "[6]": {"target": "purified HLA DRB1 *0802 (Homo sapiens, UniProt P01903+P01911, A100R/A103L/A169T/F76Y/H45Y/I96F/K41T/L162R/M171V/P40S/Q125H/Q178H/Q39Y/Q99D/R218S/R42G/S66Y/V115G/W38E)", "assay": "IC50nM to purified HLA | DRB1 *0802", "procedure": "as §1\nHead of the field: IC50nM to purified HLA | DRB1 *0802\nas §2\nWhere the first naming reader finds the target: head: IC50nM to purified HLA | DRB1 *0802"}, "[7]": {"target": "purified HLA DRB1 *0101 (Homo sapiens, UniProt P01903+P01911, A100R/D57E/F55L/F60I/F76Y/I96L/L162R/M171V/P40L/Q125E/R42F/V115G/Y59C)", "assay": "IC50nM to purified HLA | DRB1 *0101", "procedure": "as §1\nHead of the field: IC50nM to purified HLA | DRB1 *0101\nas §2\nWhere the first naming reader finds the target: head: IC50nM to purified HLA | DRB1 *0101"}, "[8]": {"target": "purified HLA DRB1 *0404 (Homo sapiens, UniProt P01903+P01911, A100R/A169T/F76Y/I96L/K127E/L162R/M171V/N62H/P40V/Q125Y/R42H/S133A/S149N/S66Y/V209L/W38E)", "assay": "IC50nM to purified HLA | DRB1 *0404", "procedure": "as §1\nHead of the field: IC50nM to purified HLA | DRB1 *0404\nas §2\nWhere the first naming reader finds the target: head: IC50nM to purified HLA | DRB1 *0404"}, "[9]": {"target": "purified HLA DRB1 *0401 (Homo sapiens, UniProt P01903+P01911, A100K/A169T/F76Y/I96L/K127E/L162R/M171V/N62H/P40V/Q125Y/R42H/S133A/S149N/S66Y/V115G/V209L/W38E)", "assay": "IC50nM to purified HLA | DRB1 *0401", "procedure": "as §1\nHead of the field: IC50nM to purified HLA | DRB1 *0401\nas §2\nWhere the first naming reader finds the target: head: IC50nM to purified HLA | DRB1 *0401"}}, "note": "Where no end group is shown, it is not given here.", "data": [{"molecule": "AAAYFVAAFTLHAAA [SEQ ID NO: 23]", "values": [{"measurement": "protease resistance of PADRE analogue sequence", "setting": "[1]; sequence inserted into loop EF of human TNFα, procedure of Example 2", "result": "increased resistance towards proteolytic degradation"}, {"measurement": "IC50", "setting": "[2]", "result": 4.4, "unit": "nM"}, {"measurement": "IC50", "setting": "[3]", "result": 81, "unit": "nM"}, {"measurement": "IC50", "setting": "[4]", "result": 78, "unit": "nM"}, {"measurement": "IC50", "setting": "[5]", "result": 126, "unit": "nM"}, {"measurement": "IC50", "setting": "[6]", "result": 5.9, "unit": "nM"}, {"measurement": "IC50", "setting": "[7]", "result": 3.4, "unit": "nM"}, {"measurement": "IC50", "setting": "[8]", "result": 0.67, "unit": "nM"}, {"measurement": "IC50", "setting": "[9]", "result": 1, "unit": "nM"}]}, {"molecule": "SEQ ID NO: 78: TNFα (Y87S) variant with the 12 C-terminal residues of SEQ ID NO: 23 inserted (protein, Synthetic TNF variant incorporating pan-DR binding peptide) MVRSSSRTPSDKPVAHVVANPQAEGQLQWLNRRANALLANGVELRDNQLVVPSEGLYLIYSQVLFKGQGCPSTHVLLTHTISRIAVSSQTKVNLLSAIKSPCQRETPEGAYFVAAFTLHAAAEAKPWYEPIYLGGVFQLEKGDRLSAEINRPDYLDFAESGQVYFGIIAL", "values": [{"measurement": "protease resistance of TNF variants (proteolytic cleavage inside the PADRE analogue sequence)", "setting": "[1]", "result": "protease resistant"}]}, {"molecule": "SEQ ID NO: 84: TNFα (Y87S) variant with the 12 C-terminal residues of SEQ ID NO: 69 inserted (protein, Synthetic TNF variant incorporating pan-DR binding peptide) MVRSSSRTPSDKPVAHVVANPQAEGQLQWLNRRANALLANGVELRDNQLVVPSEGLYLIYSQVLFKGQGCPSTHVLLTHTISRIAVSSQTKVNLLSAIKSPCQRETPEGAIFVAAWTLHAAAEAKPWYEPIYLGGVFQLEKGDRLSAEINRPDYLDFAESGQVYFGIIAL", "values": [{"measurement": "protease resistance of TNF variants (proteolytic cleavage inside the PADRE analogue sequence)", "setting": "[1]", "result": "protease resistant"}]}, {"molecule": "SEQ ID NO: 79: TNFα (Y87S) variant with the 12 C-terminal residues of SEQ ID NO: 29 inserted (protein, Synthetic TNF variant incorporating pan-DR binding peptide) MVRSSSRTPSDKPVAHVVANPQAEGQLQWLNRRANALLANGVELRDNQLVVPSEGLYLIYSQVLFKGQGCPSTHVLLTHTISRIAVSSQTKVNLLSAIKSPCQRETPEGAHFVAANTLHAAAEAKPWYEPIYLGGVFQLEKGDRLSAEINRPDYLDFAESGQVYFGIIAL", "values": [{"measurement": "protease resistance of TNF variants (proteolytic cleavage inside the PADRE analogue sequence)", "setting": "[1]", "result": "protease resistant"}]}]}
